Earlier results on one compound are cited in US20250195566A1, “ORAL PHARMACEUTICAL COMPOSITION FOR PREVENTING AND/OR TREATING DISEASES OF THE SOFT AND HARD TISSUES SURROUNDING THE TOOTH IN THE ORAL CAVITY” (priority 2021, published 2025).

Structures are written as SMILES.

Data set [1] concerns 52 bacteria isolated from subgingival plaque. The settings on record: bacteria isolated from patients with periodontitis.
Data set [2] concerns supragingival bacterial plaque and gingival inflammation. The settings on record: clinical results.

For the compound `N=C(NCCCCCCNC(=N)NC(=N)Nc1ccc(Cl)cc1)NC(=N)Nc1ccc(Cl)cc1` [chlorhexidine, Chlorhexidine], the “concentration at which all bacteria were inhibited” value in data set [1] is on record as 250 mg/mL. Moreover, in data set [2], the “reduction of gingival inflammation” value was 45% and the “reduction of supragingival bacterial plaque” value is on record as 55%.
